The values below come from US9346781B2, “Therapeutic compounds” (UNIVERSITY OF IOWA RESEARCH FOUNDATION, priority 2012, dated 2016).

In one experiment the test system is Raji. The experiment is described as follows: MTT cell viability assay, Raji. The format is cell-based. The settings on record: Homo sapiens, 72 hours, read-out: IC50 (nM), antiproliferative effect. Here is the method: (§1) FIG. 1 Illustrates results generated when HT29, A375SM, MEL624, SK-MEL-2, H1299, HCT116, Raji, HL60 and MDA-MB231 cells were treated with log-scale serial diluted concentrations of truncated superstolide A (Compound 3) from 1 to 3000 nM for 72 hours and the effect of truncated superstolide A on cell death was measured by performing a MTT assay.
(§2) Cell Viability Assay: The antiproliferative effect of compound 3 was determined by performing 3-(4,5-dimethylthiazol-2-yl)-2,5-diphenyltetrazolim (MTT) assay. Briefly, cancer cells at varying concentrations—2,000 cells/well (A375SM, MEL624 and SK-MEL-2,) and 5,000 cells/well (HT29, H1299, and HCT116, Raji, and HL-60)—were seeded onto a 96-well plate in triplicates. […] At the end of the 72 hours period, cells were treated with the MTT reagent (Sigma-Aldrich, M O) and the antiproliferative effect of compound 3 was measured as previously described (Zhou Y, Achanta G, Pelicano H, Gandhi V, Plunkett W, and Huang P (2002). Molecular Pharmacology 61:222-229). […]
(§3) The antiproliferative effect of compound 3 was evaluated in two human colon carcinoma cell lines (HT29, HCT116), three malignant melanoma cell lines (A375SM, MEL624, and SK-MEL-2), one human non-small cell lung carcinoma cell line (H1299), one lymphoma cell line (Raji), one leukemia cell line (HL-60), and one malignant breast cancer cell line (MDA-MB231) using MTT assay. […]
Background: Tetrazolium dyes change colour on reduction, which living cells bring about.

The subject of a further experiment is H1299. As to the kind of experiment: MTT cell viability assay, H1299. The experiment is classed as cell-based. Conditions: Homo sapiens, NCI-H1299, 72 hours, read-out: IC50 (nM), antiproliferative effect. On the procedure:
as §1, §2, §3

Another experiment deals with NCI-60 cell assay. As to the kind of experiment: NCI-60 cell assay. The experiment is classed as cell-based. Conditions: leukemia, non-small cell lung cancer, colon cancer, CNS cancer, melanoma, ovarian cancer, renal cancer, prostate cancer, breast cancer.
For a further experiment, the system named is MEL624. The experiment is described as follows: MTT cell viability assay, MEL624. The settings on record: 72 hours, read-out: IC50 (nM), antiproliferative effect. The format is cell-based. Here is the method:
as §1, §2, §3

The subject of a further experiment is HCT116. As to the kind of experiment: MTT cell viability assay, HCT116. The format is cell-based. Conditions: Homo sapiens, HCT-116, 72 hours, read-out: IC50 (nM), antiproliferative effect. On the procedure:
as §1, §2, §3

The test system of the next experiment is HT29. The experiment is described as follows: MTT cell viability assay, HT29. The format is cell-based, human. Here is the method: as §1, §2, §3
The subject of experiment [1] is the other eight tested cell lines. As to the kind of experiment: MTT cell viability assay, other eight tested cell lines (summary). The experiment is classed as cell-based. The settings on record: Homo sapiens; the other eight tested cell lines (all but HT-29); read-out: IC50 in suppressing tumor cell proliferation. Here is the method:
Cell Viability Assay: The antiproliferative effect of compound 3 was determined by performing 3-(4,5-dimethylthiazol-2-yl)-2,5-diphenyltetrazolim (MTT) assay. Briefly, cancer cells at varying concentrations—2,000 cells/well (A375SM, MEL624 and SK-MEL-2,) and 5,000 cells/well (HT29, H1299, and HCT116, Raji, and HL-60)—were seeded onto a 96-well plate in triplicates. Following an overnight incubation, the cells were treated with log-scale serially increasing concentrations of compound 3 for 72 hours at 37° C. At the end of the 72 hours period, cells were treated with the MTT reagent (Sigma-Aldrich, M O) and the antiproliferative effect of compound 3 was measured as previously described (Zhou Y, Achanta G, Pelicano H, Gandhi V, Plunkett W, and Huang P (2002). Molecular Pharmacology 61:222-229). The IC50 values correspond to a concentration of compound 3 that inhibits cell viability by 50%.
The antiproliferative effect of compound 3 was evaluated in two human colon carcinoma cell lines (HT29, HCT116), three malignant melanoma cell lines (A375SM, MEL624, and SK-MEL-2), one human non-small cell lung carcinoma cell line (H1299), one lymphoma cell line (Raji), one leukemia cell line (HL-60), and one malignant breast cancer cell line (MDA-MB231) using MTT assay. The data (MTT curves and IC50 tables) are shown in FIG. 1 and in the following Table 1.

The next experiment concerns HL60. As to the kind of experiment: MTT cell viability assay, HL60. Conditions: Homo sapiens, HL-60, 72 hours, read-out: IC50 (nM), antiproliferative effect. The experiment is classed as cell-based. Here is the method: as §1, §2, §3
For another experiment, the system named is MDA-MB231. As to the kind of experiment: MTT cell viability assay, MDA-MB231. The format is cell-based. The settings on record: Homo sapiens, MDA-MB-231, 72 hours, read-out: IC50 (nM), antiproliferative effect. On the procedure:
as §1, §2, §3

In another experiment the test system is A375SM. The experiment is described as follows: MTT cell viability assay, A375SM. The settings on record: Homo sapiens, A375-SM, 72 hours, read-out: IC50 (nM), antiproliferative effect. The format is cell-based. On the procedure:
as §1, §2, §3

The next experiment has as its system SK-MEL-2. As to the kind of experiment: MTT cell viability assay, SK-MEL-2. The experiment is classed as cell-based. Conditions: Homo sapiens, 72 hours, read-out: IC50 (nM), antiproliferative effect. Here is the method:
as §1, §2, §3

The test system of a further experiment is HT-29 cell. Conditions: read-out: IC50, antiproliferative effect; cited from earlier work.

Regarding `CC(=O)N[C@H](C)[C@@H](O)[C@@H](C)[C@@H]1OC(=O)/C=C/C=C(C)\C=C\[C@]2(C)CCC=C[C@@H]2/C=C(C)/C=C/[C@H]1C` [Compound 3], the IC50 is 76.7 nM in the experiment on Raji; 56.8 nM in the experiment on H1299; 53.1 nM with MEL624; 52.7 nM in the experiment on HCT116; 7.54 nM in the experiment with HT29 (Homo sapiens, HT-29, HT29, 72 hours, MTT assay, read-out: IC50 (nM), antiproliferative effect); 10 to 70 nM in experiment [1]. The IC50 in the experiment on HL60 turned out to be 11.8 nM; in the experiment on MDA-MB231, 18 nM; in the experiment on A375SM, 36.5 nM; with SK-MEL-2, 63.8 nM. In addition, the “activity in NCI-60 cell assay” value with NCI-60 cell assay is “active”. For the same molecule, the “potency in suppressing tumor cell proliferation relative to superstolide A” value with HT29 (HT-29 cell, versus parent natural product superstolide A) is on record as “about seven times more potent”.
As for superstolide A, the IC50 in the experiment on HT-29 cell is 64 nM.
